Experimental data from patent US10561703B2, “Method of modulating sex hormone levels using a sex hormone secretion modulator” (GEMVAX & KAEL CO., LTD., priority 2013, dated 2020).

Test system: LH
Test: LH level in blood (serum CLIA) after repeated sc PEP-1
Assay type: in vivo, SD rats
Procedure: PEP-1 (peptide of SEQ ID NO: 1), lyophilized white powder, obtained according to the method mentioned in example 1 was dissolved in 0.9% of saline, considering the correction factor of PEP-1 (purity: 94.13%, content: 92.36%, correction factor: 1.15). 50 mg/mL stock solution was further diluted into 20 mg/mL, 2 mg/mL, and 1 mg/mL with 0.9% saline, and stored at 4° C. for a week until the use.
The purpose of this example is to confirm the change of sexual hormones in blood from SD rats with 7 days repeated daily administration of SEQ ID NO: 1 peptide, PEP-1. This experiment followed the Ethics Regulation of Animal Test by KAMSI Inc. (Korea Animal Medical Science Institute). In addition, this experiment, Non-GLP experiment, referred to the MFDS (Ministry of Food and Drug Safety) notification; Agent 2013-40 (5th April 2013), Principles of Good Laboratory Practice (1997).
SPF Rats (Crlj:CD(SD)) were purchased from ORIENTBio Inc. (Mokdong-ri, Buk-myeon, Gapyeong-gun, Gyeonggi-do, Republic of Korea). 75 male (6.5 weeks old and 190˜210 g) and 75 female (6.5 weeks old and 160˜180 g) rats were monitored for 4 days, and 64 of male and female rats (each) were selected for the experiment. Raising condition is as follows; 23±3° C. of temperature, […] of relative humidity, 10˜20 times/hr of number of air changes, 12 hours (8 a.m.˜8 p.m.) of lighting with 150˜300 Lux of intensity.
64 male and female […] (mentioned above) were divided into 8 groups. Administration regimen, for example, drugs, routes, dosages, and volumes were as follows:
The detailed administration regimen is as follows; once a day, twice a day and twice a week in each experimental group. Injection initiated at 10 a.m. every day, and each rat was injected at one minute intervals. Rats in Group 9, 10, 13 and 14 were injected twice a week. Administration of high dose test agent preceded that of low dose. The volume of injection was calculated using recently measured weight of rats, and it was 5 mL/kg. Subcutaneous injection was performed as follows; assistant tilted the back of rat upward, and experimenter sterilized the back of rat with 70% alcohol, followed by subcutaneous injection of test agent with 26 G syringe.
1.4 mL of blood sample (0.7 mL of serum) was collected after measurement of weight (Day 0). Next day (1 Day), 1.4 mL of blood sample (0.7 mL of serum) was collected twice after injection of test agent (4 hrs and 8 hrs after administration of test agent). For next 6 days (Day 2˜Day 7), 1.4 mL of blood was extracted once everyday (4 hours after injection of test agent). Dose and volume of test agent of each group followed the Table 3, and injection time zone was same every day. Blood was extracted from the jugular vein, and left at room temperature for 30 minutes. Serum was separated using centrifugation (10,000 rpm for 5 minutes), and stored at −70±5° C. in Deep freezer until the use. Blood extraction from each subject was done in the same time zone every day.
A CLIA (Chemi-Luminescence Immune Assay) Kit was used to analyze Testosterone, Estradiol E2, FSH (Follicle stimulating hormone), and LH (Luteinizing hormone). Analysis was completed within 48 hrs after blood extraction (Laboratory Medicine Department, Chung-Ang University Hospital), and detailed method is as follows; One-way ANOVA was used to verify the comparison between the vehicle and PEP-1, and between different doses of PEP-1. For further analysis, Duncan test was used as parametric test and Dunnett's test as non-parametric test. p<0.05 represents the statistical significance, and all statistical analysis was carried out with SPSS 10.1.
LH was analyzed using the samples prepared from example 2. 50 μL of serum was used for analysis. Fundamentals of analysis is Two-site sandwich immunoassay based on direct chemi-luminescent. As mentioned in example 2, CLIA (Chemi-luminescence immune assay) Kit was used, following the manufacture's protocol.

## EARPALLTSRLRFIPK (listed as Homo sapiens) [PEP-1, hormone secretion modulator / GnRH analog]
G11 Male 100 mg/kg sc 1/day x7, 5 days
  LH level in blood: 0.19 mIU/mL
G11 Male 100 mg/kg sc 1/day x7, 6 days
  LH level in blood: 0.21 mIU/mL
G11 Male 100 mg/kg sc 1/day x7, 7 days
  LH level in blood: 0.21 mIU/mL
G11 Male 100 mg/kg sc 1/day x7, pre
  LH level in blood: 0.1 mIU/mL
G12 Female 100 mg/kg sc 1/day x7, 4 hr
  LH level in blood: 0.3 mIU/mL
G12 Female 100 mg/kg sc 1/day x7, 8 hr
  LH level in blood: 0.17 mIU/mL
G12 Female 100 mg/kg sc 1/day x7, 2 days
  LH level in blood: 0.22 mIU/mL
G12 Female 100 mg/kg sc 1/day x7, 3 days
  LH level in blood: 0.22 mIU/mL
G12 Female 100 mg/kg sc 1/day x7, 4 days
  LH level in blood: 0.23 mIU/mL
G12 Female 100 mg/kg sc 1/day x7, 5 days
  LH level in blood: 0.23 mIU/mL
G12 Female 100 mg/kg sc 1/day x7, 6 days
  LH level in blood: 0.28 mIU/mL
G12 Female 100 mg/kg sc 1/day x7, 7 days
  LH level in blood: 0.27 mIU/mL
G12 Female 100 mg/kg sc 1/day x7, pre
  LH level in blood: 0.13 mIU/mL
G13 Male 100 mg/kg sc 2/week x2 (days 1,7), 4 hr
  LH level in blood: 1.52 mIU/mL
G13 Male 100 mg/kg sc 2/week x2 (days 1,7), 8 hr
  LH level in blood: 0.21 mIU/mL
G13 Male 100 mg/kg sc 2/week x2 (days 1,7), 2 days
  LH level in blood: 0.11 mIU/mL
G13 Male 100 mg/kg sc 2/week x2 (days 1,7), 3 days
  LH level in blood: 0.11 mIU/mL
G13 Male 100 mg/kg sc 2/week x2 (days 1,7), 4 days
  LH level in blood: 0.14 mIU/mL
G13 Male 100 mg/kg sc 2/week x2 (days 1,7), 5 days
  LH level in blood: 0.13 mIU/mL
G13 Male 100 mg/kg sc 2/week x2 (days 1,7), 6 days
  LH level in blood: 0.11 mIU/mL
G13 Male 100 mg/kg sc 2/week x2 (days 1,7), 7 days
  LH level in blood: 0.99 mIU/mL
G13 Male 100 mg/kg sc 2/week x2 (days 1,7), pre
  LH level in blood: 0.12 mIU/mL
G14 Female 100 mg/kg sc 2/week x2 (days 1,7), 4 hr
  LH level in blood: 0.44 mIU/mL
G14 Female 100 mg/kg sc 2/week x2 (days 1,7), 8 hr
  LH level in blood: 0.18 mIU/mL
G14 Female 100 mg/kg sc 2/week x2 (days 1,7), 2 days
  LH level in blood: 0.17 mIU/mL
G14 Female 100 mg/kg sc 2/week x2 (days 1,7), 3 days
  LH level in blood: 0.14 mIU/mL
G14 Female 100 mg/kg sc 2/week x2 (days 1,7), 4 days
  LH level in blood: 0.09 mIU/mL
G14 Female 100 mg/kg sc 2/week x2 (days 1,7), 5 days
  LH level in blood: 0.12 mIU/mL
G14 Female 100 mg/kg sc 2/week x2 (days 1,7), 6 days
  LH level in blood: 0.11 mIU/mL
G14 Female 100 mg/kg sc 2/week x2 (days 1,7), 7 days
  LH level in blood: 0.57 mIU/mL
G14 Female 100 mg/kg sc 2/week x2 (days 1,7), pre
  LH level in blood: 0.12 mIU/mL
G15 Male 250 mg/kg sc 1/day x7, 4 hr
  LH level in blood: 1.4 mIU/mL
G15 Male 250 mg/kg sc 1/day x7, 8 hr
  LH level in blood: 0.29 mIU/mL
G15 Male 250 mg/kg sc 1/day x7, 2 days
  LH level in blood: 0.28 mIU/mL
G15 Male 250 mg/kg sc 1/day x7, 3 days
  LH level in blood: 0.2 mIU/mL
G15 Male 250 mg/kg sc 1/day x7, 4 days
  LH level in blood: 0.19 mIU/mL
G15 Male 250 mg/kg sc 1/day x7, 5 days
  LH level in blood: 0.2 mIU/mL
G15 Male 250 mg/kg sc 1/day x7, 6 days
  LH level in blood: 0.21 mIU/mL
G15 Male 250 mg/kg sc 1/day x7, 7 days
  LH level in blood: 0.23 mIU/mL
G15 Male 250 mg/kg sc 1/day x7, pre
  LH level in blood: 0.12 mIU/mL
G16 Female 250 mg/kg sc 1/day x7, 4 hr
  LH level in blood: 0.42 mIU/mL
G16 Female 250 mg/kg sc 1/day x7, 8 hr
  LH level in blood: 0.2 mIU/mL
G16 Female 250 mg/kg sc 1/day x7, 2 days
  LH level in blood: 0.23 mIU/mL
G16 Female 250 mg/kg sc 1/day x7, 3 days
  LH level in blood: 0.22 mIU/mL
G16 Female 250 mg/kg sc 1/day x7, 4 days
  LH level in blood: 0.23 mIU/mL
G16 Female 250 mg/kg sc 1/day x7, 5 days
  LH level in blood: 0.26 mIU/mL
G16 Female 250 mg/kg sc 1/day x7, 6 days
  LH level in blood: 0.28 mIU/mL
G16 Female 250 mg/kg sc 1/day x7, 7 days
  LH level in blood: 0.28 mIU/mL
G16 Female 250 mg/kg sc 1/day x7, pre
  LH level in blood: 0.11 mIU/mL
Male and female
  Effect on LH secretion: seems to stimulate the LH secretion
male, 4 hrs, all groups but vehicle, before administration 0.1 mIU/mL
  LH level: 0.5-1.5 mIU/mL
